Assay [1] addresses wild type MLL1 four-member complex (MLL1-4C) (Homo sapiens, UniProt Q03164). Put plainly: MLL1 LC-MS Assay. In kind it is biochemical. The settings on record: read-out: LCMS. On the procedure:
The compounds of the present disclosure were serially and separately diluted 3-fold in DMSO to obtain a total of eight or twelve concentrations. Then the test compounds at each concentration (120 nL of each) were transferred by Mosquito into white Proxiplate plus 384-well microplate (PerkinElmer). Solutions (6 μL) of 60 nM wild type MLL1 four-member complex (MLL1-4C) and 5 μM SAM in the reaction buffer (20 mM Tris-HCl, pH 8.0, 0.01% Tween 20, 1 mM DTT, 10 mM MgCl2, 0.01% BSA) were added to the wells that were then incubated with the test compound for 20 min. A 6 μL solution of 20 μM of the peptide substrate H3K4me0 (histone H3[1-21]-Biotin) in the reaction buffer was added to initiate each reaction. The final components in the reaction solution include 30 nM MLL1-4C, 2.5 μM SAM, and 10 μM H3K4me0 with varying concentration of the compounds. A positive control consisted of 30 nM MLL1-4C, 2.5 μM SAM, and 10 μM substrate in the absence of the test compound, and a negative control consisted of 2.5 μM SAM, and 10 μM substrate only. Each reaction was incubated at rt for 120 min, then stopped by addition of 3 μL per of quench solution (2.5% TFA with 320 nM d4-SAH). The reaction mixture was centrifuged (Eppendorf centrifuge 5810, Rotor A-4-62) for 2 min at 2000 rpm. The SAH production from the enzymatic assays were monitored by LC-MS/MS on an API 4000 triple quadrupole mass spec with Turbolon Spray (Applied Biosystem) coupled with Prominenece UFLC (Shimazu). The level of SAH production were then normalized based on the values coming from the positive and negative controls to give percent enzyme activities. The data were then fit to a dose response equation using the program Helios (Novartis) to get the IC50 values of the test compounds.

For assay [2], the system named is H3K4me3 in MV4-11 cells. The experiment in a line: MV4-11 H3K4me3 Cellular ELISA Assay. The class given is cell-based. The settings on record: Homo sapiens, MV4-11, 48 h. On the procedure:
MV4-11 H3K4me3 Cellular ELISA Assay
MV4-11 (ATCC® CRL-9591™) was cultured with RPMI1640 medium (Thermo Fisher Scientific, cat #11875) supplemented with 10% FBS (Thermo Fisher Scientific, cat #10099141) and 50 U/ml Penicillin-Streptomycin (Thermo Fisher Scientific, cat #10378016) in humidified incubator at 37° C., 5% CO2.
200 nL compounds dissolved in DMSO were serially diluted at 1:3 ratio for 12 points starting from 10 mM and dispensed into each wells of cell culture plates (PDL-coated ViewPlate-384 Black, FTC, PerkinElmer, #6007710). 3,750 MV4-11 cells in 40 μL culture medium were seeded into each well and treated with desired concentration for 48 hours. After treatment, wash cells with cold phosphate based buffer (PBS, pH 7.4) and aspirate the remaining PBS buffer. Crude histone lysate was extracted by 40 μL 0.5M HCl for 1 hour in 4° C. following neutralization by adding 32 μL neutralization buffer (0.5M Sodium phosphate dibasic, pH ˜12.5, 1.25 mM Dithiothreitol, Promega #V3151, Protease Inhibitor Cocktail, Sigma #8340) for each well. 5 μL and 20 μL of histone lysate was loaded to ELISA plate (384 Well Plates, PE HB, White, 6005620) for detection of total H3 and H3K4me3, respectively. Shake the plates gently in 4° C. for overnight. After histone binding, plates were washed with 80 μL PBS/T (PBS with 0.05% Tween-20) and blocked with 50 μL 3% BSA diluted in PBS/T per well for 1 hour. Incubate wells with primary antibody for 1 hour at room temperature using anti-H3K4me3 (CST #9727) and anti-total H3 (CST #9715) diluted 1:2000 in 3% BSA. Plates were then washed with PBS/T for 3 times and incubated with horseradish peroxidase (HRP) conjugated secondary antibody (CST #7074, 1:5000) for 1 hour at room temperature. The abundance of H3K4me3 and total H3 were measured by ECL substrates chemiluminescence (Pierce, #34080) on a plate reader (PerkinElmer EnVison 2104 Mutilable Reader). Percentage inhibition was calculated against DMSO control after normalization of H3K4me3 signal to H3 signal for individual samples. The data were then fit to a dose response curve using GraphPad Prism for IC50 calculation.
Background: An ELISA detects its analyte on a solid surface through an enzyme-linked reagent.

The subject of assay [3] is MV4-11 cells. The experiment in a line: MV4-11 6-Day Cell Growth CTG (CellTiter-Glo) Assay. The class given is cell-based. The note with it: Homo sapiens, MV4-11, 144 h, MV4-11 cell growth CellTiter-Glo, 6 days. On the procedure:
MV4-11 6-Day Cell Growth CTG (CellTiter-Glo) Assay
Acute myeloid leukemia cell MV4-11 (ATCC® CRL-9591™) was cultured with RPMI 1640 medium (Thermo Fisher Scientific, cat #11875) supplemented with 10% FBS (Thermo Fisher Scientific, cat #10099141) in humidified incubator at 37° C., 5% CO2. To assess the effect of MLL1 inhibition on cell growth, the compound of the present invention was dissolved in DMSO and serially diluted at 1:3 for 12 points starting from 10 mM then 200 nL for the replicate of each dose per well was dispensed to Viewplate-384 Black (Perkin Elmer). Exponentially growing MV4-11 cells were seeded at the density of 300 cells per well in 40 μL to the plate, so the final compound working concentration starts from 50 μM. After 6 days, 40 μL CellTiter-Glo (Promega, cat #G7573) was added into the cell culture well and luminescence was read with Envision (Perkin Elmer) to determine the viable cells. The percentage inhibition was calculated against the samples treated with DMSO only and the data were used for dose response curve fitting in GraphPad Prism to get the IC50 of representative compound of present invention, which reflects the inhibition of MLL1 activity.
(ATP-based viability assays read luminescence as a measure of living cells.)

Molecules are shown by their SMILES.

For the compound `C=Cc1cc(Cl)cc(N2CC[C@](N)(c3nc[nH]n3)C2)c1Cn1cnc2c(N)ncnc21` [Example 24], the IC50 in assay [1] was under 0.05 µM; in assay [2], under 1.9 µM; in assay [3] it was under 2 µM.
For `CCc1cc(Cl)cc(N2CC[C@](N)(c3nc[nH]n3)C2)c1Cn1cnc2c(N)ncnc21` [Example 25], in that order: under 0.05 µM, under 1.9 µM and under 2 µM.
For `Nc1ncnc2c1ncn2Cc1c(N2CC[C@](N)(c3ccccc3)C2)ccc(F)c1C(F)(F)F` [Example 26], in that order: 0.05 to 0.1 µM, 1.9 to 3 µM and 2 to 3 µM.
Regarding `COC(=O)[C@@]1(N)CCN(c2cc(Cl)cc(C3CCC3)c2Cn2cnc3c(N)ncnc32)C1` [Example 29], the IC50 in assay [1] was under 0.05 µM; in assay [2] it was under 1.9 µM; in assay [3] it was under 2 µM.
For `Nc1ncnc2c1ncn2Cc1c([C@@H](O)C(F)(F)F)cc(Cl)cc1N1CC[C@](N)(C(=O)NC2CC2)C1` [Example 33, (R)-3-amino-1-(2-((6-amino-9H-purin-9-yl)methyl)-5-chloro-3-((R)-2,2,2-trifluoro-1-hydroxyethyl)phenyl)-N-cyclopropylpyrrolidine-3-carboxamide], in that order: 0.05 to 0.1 µM, 1.9 to 3 µM and over 3 µM.
On to `Nc1ncnc2c1ncn2Cc1c(N2CC[C@](N)(C(=O)NC3CC3)C2)ccc(C(F)(F)F)c1Br` [Example 41, (R)-3-amino-1-(2-((6-amino-9H-purin-9-yl)methyl)-3-bromo-4-(trifluoromethyl)phenyl)-N-cyclopropylpyrrolidine-3-carboxamide], for which the values for the IC50 in assay [1], in assay [2] and in assay [3] were under 0.05 µM, under 1.9 µM and under 2 µM, respectively.
In the same order, the values of `Nc1ncnc2c1ncn2Cc1c(N2CC[C@](N)(C(=O)NC3CC3)C2)ccc(F)c1CN1CCCCC1` [Example 46] are 0.05 to 0.1 µM, under 1.9 µM and under 2 µM.
Take `CN(C)Cc1c(C(F)(F)F)ccc(N2CC[C@](N)(C(=O)NC3CC3)C2)c1Cn1cnc2c(N)ncnc21` [Example 47]: the IC50 in assay [1] was under 0.05 µM; in assay [2], under 1.9 µM; in assay [3], under 2 µM.
In the same order, the values of `CN(Cc1c(F)ccc(N2CC[C@](N)(C(=O)NC3CC3)C2)c1Cn1cnc2c(N)ncnc21)C1CC1` [Example 48] are over 0.1 µM, under 1.9 µM and 2 to 3 µM.
In the same order, the values of `CN(C)Cc1c(F)ccc(N2CC[C@](N)(C(=O)N[C@H]3C[C@@H]3c3ccccc3)C2)c1Cn1cnc2c(N)ncnc21` [Example 49] are under 0.05 µM, under 1.9 µM and under 2 µM.
`Nc1ncnc2c1ncn2Cc1c(N2CC[C@](N)(C(=O)NC3CC3)C2)ccc(F)c1CN1CC[C@@H](F)C1` [Example 50]: the values for the IC50 in assay [1], in assay [2] and in assay [3] were under 0.05 µM, under 1.9 µM and under 2 µM, respectively.
With `Nc1ncnc2c1ncn2Cc1c(N2CC[C@](N)(C(=O)NC3CC3)C2)ccc(F)c1CN1CC(F)C1` [Example 53], the values for the IC50 in assay [1], in assay [2] and in assay [3] were 0.05 to 0.1 µM, under 1.9 µM and under 2 µM, respectively.
In the same order, the values of `Nc1ncnc2c1ncn2Cc1c(N2CC[C@](N)(C(=O)NC3CC3)C2)ccc(F)c1CNC1CC1` [Example 54] are over 0.1 µM, under 1.9 µM and under 2 µM.
For `Nc1ncnc2c1ncn2Cc1c(N2CC[C@](N)(C(=O)NC3CC3)C2)ccc(F)c1CN1CCC(F)(F)CC1` [Example 55], in that order: 0.05 to 0.1 µM, under 1.9 µM and under 2 µM.
In the same order, the values of `Nc1ncnc2c1ncn2Cc1c(N2CC[C@](N)(C(=O)NC3CC3)C2)ccc(F)c1CN1CCC(F)CC1` [Example 56] are 0.05 to 0.1 µM, under 1.9 µM and under 2 µM.
For the compound `Nc1ncnc2c1ncn2Cc1c(N2CC[C@](N)(C(=O)NC3CC3)C2)ccc(F)c1CNCC(F)(F)F` [Example 57], the IC50 in assay [1] is 0.05 to 0.1 µM; in assay [2], under 1.9 µM; in assay [3] it was under 2 µM.
In the same order, the values of `Nc1ncnc2c1ncn2Cc1c(N2CC[C@](N)(C(=O)NC3CC3)C2)ccc(F)c1CN1C[C@H]2CC[C@@H](C1)O2` [Example 58] are 0.05 to 0.1 µM, under 1.9 µM and under 2 µM.
In the same order, the values of `CCN(Cc1c(F)ccc(N2CC[C@](N)(C(=O)NC3CC3)C2)c1Cn1cnc2c(N)ncnc21)C1CC1` [Example 59] are under 0.05 µM, under 1.9 µM and under 2 µM.
With `CN(C)Cc1c(Cl)ccc(N2CC[C@](N)(C(=O)NC3CC3)C2)c1Cn1cnc2c(N)ncnc21` [Example 60], the IC50 in assay [1] was 0.05 to 0.1 µM; in assay [2] it was under 1.9 µM; in assay [3], under 2 µM.
Regarding `Nc1ncnc2c1ncn2Cc1c(N2CC[C@](N)(C(=O)NC3CC3)C2)ccc(F)c1CN1CCCC1` [Example 61], the IC50 was 0.05 to 0.1 µM in assay [1], under 1.9 µM in assay [2] and under 2 µM in assay [3].
Take `CC1(C)CCN(Cc2c(F)ccc(N3CC[C@](N)(C(=O)NC4CC4)C3)c2Cn2cnc3c(N)ncnc32)C1` [Example 63]: the IC50 in assay [1] is over 0.1 µM; in assay [2], under 1.9 µM; in assay [3], under 2 µM.
In the same order, the values of `CC1CN(Cc2c(F)ccc(N3CC[C@](N)(C(=O)NC4CC4)C3)c2Cn2cnc3c(N)ncnc32)C1` [Example 64] are 0.05 to 0.1 µM, under 1.9 µM and under 2 µM.
In the case of `Nc1ncnc2c1ncn2Cc1c(N2CC[C@](N)(C(=O)NC3CC3)C2)ccc(F)c1CN1CCC(F)(F)C1` [Example 66], the IC50 in assay [1] is under 0.05 µM; in assay [2], under 1.9 µM; in assay [3], under 2 µM.
As to `CCN(CC)Cc1c(F)ccc(N2CC[C@](N)(C(=O)NC3CC3)C2)c1Cn1cnc2c(N)ncnc21` [Example 67], the IC50 is 0.05 to 0.1 µM in assay [1], under 1.9 µM in assay [2] and under 2 µM in assay [3].
For `Nc1ncnc2c1ncn2Cc1c(N2CC[C@](N)(C(=O)NC3CC3)C2)ccc(F)c1CN1CC[C@H](F)C1` [Example 68], in that order: under 0.05 µM, under 1.9 µM and under 2 µM.

Source of the values: patent US20220380371A1, “MLL1 INHIBITORS AND ANTI-CANCER AGENTS” (NOVARTIS AG, priority 2019, published 2022).
